Among the data in PMC6934184, “Selective DNA-PKcs inhibition extends the therapeutic index of localized radiotherapy and chemotherapy” (The Journal of Clinical Investigation, 2019) are inhibition values, retold here.

The target in the assay is T1, PLK4 (Homo sapiens, UniProt O00444).
T1 construct: purchased Thermo Fisher Scientific (Life Technologies) SelectScreen
As to the kind of experiment: SelectScreen LanthaScreen. To be noted: read-out: % displacement. It is filed as binding. The procedure, abridged:
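Percent values come from Thermo SelectScreen profiling of NU5455, combining activity and binding assays. CSF1R was run in Z'LYTE format at Km app ATP, and CAMK1 in Adapta format with ATP listed at 10.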

T1 sequence (O00444 whole entry): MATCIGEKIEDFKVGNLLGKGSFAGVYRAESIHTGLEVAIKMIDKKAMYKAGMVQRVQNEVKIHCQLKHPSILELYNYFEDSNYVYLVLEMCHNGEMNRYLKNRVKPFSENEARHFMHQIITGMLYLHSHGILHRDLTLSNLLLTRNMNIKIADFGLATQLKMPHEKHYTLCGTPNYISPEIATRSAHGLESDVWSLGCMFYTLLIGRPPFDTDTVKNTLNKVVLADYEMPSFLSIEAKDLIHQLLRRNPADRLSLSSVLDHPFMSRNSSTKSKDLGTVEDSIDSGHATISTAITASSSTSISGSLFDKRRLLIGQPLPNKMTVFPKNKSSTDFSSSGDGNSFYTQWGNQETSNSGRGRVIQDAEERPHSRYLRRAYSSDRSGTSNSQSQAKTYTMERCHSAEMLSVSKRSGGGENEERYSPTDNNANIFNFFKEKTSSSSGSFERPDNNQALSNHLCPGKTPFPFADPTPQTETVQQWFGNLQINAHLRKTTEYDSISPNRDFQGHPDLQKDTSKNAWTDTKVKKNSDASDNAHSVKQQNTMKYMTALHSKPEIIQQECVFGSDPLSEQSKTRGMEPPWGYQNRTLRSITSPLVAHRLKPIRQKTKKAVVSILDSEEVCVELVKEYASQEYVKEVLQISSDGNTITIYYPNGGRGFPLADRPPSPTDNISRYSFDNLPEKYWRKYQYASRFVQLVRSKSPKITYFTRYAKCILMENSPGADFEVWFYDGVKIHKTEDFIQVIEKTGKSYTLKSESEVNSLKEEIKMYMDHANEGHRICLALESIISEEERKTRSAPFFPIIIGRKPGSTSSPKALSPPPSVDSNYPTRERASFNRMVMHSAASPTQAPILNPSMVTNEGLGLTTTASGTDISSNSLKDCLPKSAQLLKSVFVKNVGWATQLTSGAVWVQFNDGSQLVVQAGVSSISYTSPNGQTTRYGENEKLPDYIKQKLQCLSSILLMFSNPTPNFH

In the case of `CN(C(=O)CN1CCOCC1)c1ccc2sc3c(-c4cccc5c(=O)cc(N6CC7CCC(C6)O7)oc45)cccc3c2c1` [NU5455], the inhibition at 1 µM was -2.8%.
